Source: PMC7178833, “Preparation, carbonic anhydrase enzyme inhibition and antioxidant activity of novel 7-amino-3,4-dihydroquinolin-2(1H)-one derivatives incorporating mono or dipeptide moiety” (Journal of Enzyme Inhibition and Medicinal Chemistry, 2020)

How the values were obtained:
[1] = DPPH radical scavenging activity
Method: Antioxidant activity was determined based on the ability of the antioxidants to act as radical scavengers towards the stable free radical, 1,1-diphenyl-2-picrylhydrazyl (DPPH). As detailed by Yang et al[28], 1 ml of antioxidant solution (solubilised in ethanol) was added to 3 ml of a 0.1 mM ethanolic solution of DPPH. After 30 min at ambient temperature in darkness, absorbance readings were taken at 517 nm. Inhibition (%) was calculated using the equation [1 – (As−Ao)/Ab]×100 where As was the absorbance reading for samples containing antioxidant, Ao was the absorbance of the antioxidant in pure methanol and Ab corresponded to the absorbance of the DPPH solution.
The antioxidant activity of the compounds was determined based on the ability of the antioxidants to act as radical scavengers towards the stable free radical, 1,1-diphenyl-2-picrylhydrazyl (DPPH)[28].

hCA IX = hCA IX (Homo sapiens, UniProt Q16790); test: stopped flow CO2 hydrase assay, hCA IX; type: biochemical; details: mean from three different assays
Method: (§1) An Applied Photophysics Stopped-Flow instrument has been used for assaying the CA catalysed CO2 hydration activity by using method of Khalifah[21]. Phenol red (at a concentration of 0.2 mM) has been used as indicator, working at the absorbance maximum of 557 nm, with 20 mM HEPES (pH 7.5) as buffer and 20 mM Na2SO4 (for maintaining constant the ionic strength), following the initial rates of the CA-catalysed CO2 hydration reaction for a period of 10–100 s. The CO2 concentrations ranged from 1.7 to 17 mM for the determination of the kinetic parameters and inhibition constants. […] The uncatalysed rates were determined in the same manner and subtracted from the total observed rates. Stock solutions of inhibitor (0.1 mM) were prepared in distilled–deionised water and dilutions up to 0.01 nM were done thereafter with the assay buffer. Inhibitor and enzyme solutions were pre-incubated together for 15 min at room temperature prior to assay, in order to allow for the formation of the E–I complex. The inhibition constants were obtained by non-linear least-square methods using PRISM (www.graphpad.com), and non-linear least squares methods, values representing the mean of at least three different determinations, as described earlier by us[22–27].

hCA II = hCA II (Homo sapiens, UniProt P00918); test: stopped flow CO2 hydrase assay, hCA II; type: biochemical; details: mean from three different assays, read-out: Ki hCAII
Method: as §1

hCA XII = hCA XII (Homo sapiens, UniProt O43570); test: stopped flow CO2 hydrase assay, hCA XII; type: biochemical; details: mean from three different assays
Chain of hCA XII (O43570 25-354): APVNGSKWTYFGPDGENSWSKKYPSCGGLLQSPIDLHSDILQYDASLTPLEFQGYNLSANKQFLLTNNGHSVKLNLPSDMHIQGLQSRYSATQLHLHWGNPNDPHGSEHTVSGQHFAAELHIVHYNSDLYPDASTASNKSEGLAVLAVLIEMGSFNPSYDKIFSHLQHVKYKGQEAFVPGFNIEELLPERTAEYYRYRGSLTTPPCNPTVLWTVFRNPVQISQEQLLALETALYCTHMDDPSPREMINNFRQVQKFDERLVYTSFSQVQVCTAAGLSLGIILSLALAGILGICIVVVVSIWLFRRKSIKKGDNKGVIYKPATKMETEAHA
Method: as §1

hCA I = hCA I (Homo sapiens, UniProt P00915); test: stopped flow CO2 hydrase assay, hCA I; type: biochemical; details: mean from three different assays
Chain of hCA I (P00915 whole entry): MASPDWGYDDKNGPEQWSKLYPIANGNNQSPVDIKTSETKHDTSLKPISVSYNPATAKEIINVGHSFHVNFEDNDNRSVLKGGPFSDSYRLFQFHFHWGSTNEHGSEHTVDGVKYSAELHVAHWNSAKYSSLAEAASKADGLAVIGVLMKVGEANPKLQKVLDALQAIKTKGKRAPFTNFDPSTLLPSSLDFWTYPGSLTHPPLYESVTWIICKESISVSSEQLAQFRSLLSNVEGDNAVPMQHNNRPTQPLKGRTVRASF
Method: as §1

Molecule	Antioxidant activity, % ([1]; 12.5 μg/ml)	Antioxidant activity, % ([1]; 25 μg/ml)	Antioxidant activity, % ([1]; 37.5 μg/ml)	Antioxidant activity, % ([1]; 62.5 μg/ml)	Antioxidant activity, % ([1]; 125 μg/ml)	melting point	Ki (hCA IX)	Ki (hCA II)	Ki (hCA XII)	Ki (hCA I)
O=C1CCc2ccc(NC(=O)[C@H](CSc3ccccc3)NC(=O)OCc3ccccc3)cc2N1 (stereo in doubt) [Compound 4, Benzyl (R)-(1-oxo-1-((2-oxo-1,2,3,4-tetrahydroquinolin-7-yl)amino)-3-(phenylthio)propan-2-yl)carbamate]	2.5%	1.6%	0.9%	2.2%	1.6%	150 to 151 °C	65.4 µM	> 100 µM	5.7 µM	> 100 µM
Benzyl ((R)-1-oxo-1-(((S)-1-oxo-1-((2-oxo-1,2,3,4-tetrahydroquinolin-6-yl)amino)-3-phenylpropan-2-yl)amino)-3-phenylpropan-2-yl)carbamate [Compound 6]	1.9%	6.3%	8.8%	16.4%	–	–	47.6 µM	> 100 µM	8.6 µM	> 100 µM
CC(C)(C)OC(=O)N[C@H](Cc1ccccc1)C(=O)Nc1ccc2c(c1)NC(=O)CC2 (stereo in doubt) [Compound 2, Tert-butyl (R)-(1-oxo-1-((2-oxo-1,2,3,4-tetrahydroquinolin-7-yl)amino)-3-phenylpropan-2-yl)carbamate]	3.1%	2.2%	0.0%	0.9%	0.6%	180 to 181 °C	41.2 µM	> 100 µM	3.8 µM	> 100 µM
CSCC[C@H](NC(=O)OC(C)(C)C)C(=O)Nc1ccc2c(c1)NC(=O)CC2 (stereo in doubt) [Compound 3, Tert-butyl (S)-(4-(methylthio)-1-oxo-1-((2-oxo-1,2,3,4-tetrahydroquinolin-7-yl)amino)butan-2-yl)carbamate]	0.9%	0.3%	–	–	–	171 to 172 °C	42.6 µM	> 100 µM	8.5 µM	> 100 µM
CSCC[C@H](NC(=O)OCc1ccccc1)C(=O)Nc1ccc2c(c1)NC(=O)CC2 (stereo in doubt) [Compound 5, Benzyl (S)-(4-(methylthio)-1-oxo-1-((2-oxo-1,2,3,4-tetrahydroquinolin-7-yl)amino)butan-2-yl)carbamate]	2.8%	1.9%	1.9%	2.8%	2.8%	137 to 138 °C	37.7 µM	> 100 µM	7 µM	> 100 µM
COc1ccc(O)c(C(C)(C)C)c1 [BHA, reference compound]	61.1%	63.0%	67.5%	71.0%	72.4%	–	–	–	–	–
C[C@@H](NC(=O)OC(C)(C)C)C(=O)Nc1ccc2c(c1)NC(=O)CC2 (stereo in doubt) [Compound 1, Tert-butyl (R)-(1-oxo-1-((2-oxo-1,2,3,4-tetrahydroquinolin-7-yl)amino)propan-2-yl)carbamate]	3.8%	2.2%	2.5%	1.6%	0.6%	197 to 198 °C	86.8 µM	> 100 µM	2 µM	> 100 µM
Cc1c(C)c2c(c(C)c1O)CC[C@@](C)(CCC[C@H](C)CCC[C@H](C)CCCC(C)C)O2 [α-Toc., α-tocopherol, reference compound]	62.9%	63.4%	68.4%	72.8%	74.0%	–	–	–	–	–
